Assays:
[1] = tested on: haloperidol-induced catalepsy; conditions: cited from earlier work
Human M4 = molecular target: T1, Human M4 (Homo sapiens, UniProt P08173); assay: mAChR M4 cell-based functional assay (calcium flux, decrease of EC80 acetylcholine response); conditions: for remaining activity at 30 µM: read-out: Human M4 Emin; for IC50: M4/Gqi5/CHO-K1 cells, decrease of response to EC80 acetylcholine
T1 construct: Human or rat M4 cDNA, along with the chimeric G protein Gqi5, were transfected into Chinese hamster ovary (CHO-K1) cells; expressed in transfected cells; host or cells: CHO-K1 (Chinese hamster ovary, ATCC), stably co-expressing Gqi5
T1 sequence (P08173 1-479): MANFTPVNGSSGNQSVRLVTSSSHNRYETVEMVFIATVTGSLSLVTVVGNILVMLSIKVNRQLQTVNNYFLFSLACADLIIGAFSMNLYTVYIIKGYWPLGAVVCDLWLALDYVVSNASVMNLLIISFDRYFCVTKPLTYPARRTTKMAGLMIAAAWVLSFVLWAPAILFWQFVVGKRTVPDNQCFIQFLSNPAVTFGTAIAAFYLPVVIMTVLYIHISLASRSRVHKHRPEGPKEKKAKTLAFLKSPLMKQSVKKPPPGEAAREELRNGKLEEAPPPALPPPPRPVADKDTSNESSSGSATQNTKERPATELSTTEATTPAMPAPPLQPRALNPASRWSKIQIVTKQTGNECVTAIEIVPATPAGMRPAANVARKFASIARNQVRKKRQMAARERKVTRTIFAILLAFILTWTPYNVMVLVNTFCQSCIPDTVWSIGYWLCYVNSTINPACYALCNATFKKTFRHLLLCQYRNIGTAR
In short: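 IC50 reflects inhibition of an EC80 acetylcholine calcium response, fitted by four-parameter logistic equation. Fluo-4-loaded M4/Gqi5 CHO-K1 cells received compound (10-point, 1:3 series) 2 s into the FDSS read, then EC20 acetylcholine at 143 s and EC80 at 268 s.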

remaining activity at 30 µM (Human M4; % ACh maximum at 30 μM) [%] | IC50 (Human M4) [nM] | SMILES | reduction of catalepsy induced by haloperidol ([1]; M4KO mice) | reversal of catalepsy induced by haloperidol ([1]; WT mice) | Human M4 Emin (Human M4; % ACh maximum at 30 μM) [%]
 |  | CN1[C@@H]2C[C@@H](OC(=O)[C@H](CO)c3ccccc3)C[C@H]1[C@@H]1O[C@@H]12 [scopolamine] | ineffective | completely reversed | 
4 | 401 | N#Cc1c(F)ccc(-c2cc(C(F)(F)F)c(N[C@H]3C[C@@H]4CN(CC5CCOCC5)C[C@@H]4C3)nn2)c1F [Example 55, 2,6-difluoro-3-(6-(((3aR,5s,6aS)-2-((tetrahydro-2H-pyran-4-yl)methyl)octahydro-cyclopenta[c]pyrrol-5-yl)amino)-5-(trifluoro-methyl)pyridazin-3-yl)benzonitrile] |  |  | 
4 | 70.9 | [2H]C([2H])([2H])OC([2H])([2H])c1ccc(F)cc1-c1cc(C(F)(F)F)c(N[C@H]2C[C@@H]3CN(CC4CCOCC4)C[C@@H]3C2)nn1 [Example 47, (3aR,5s,6aS)-N-(6-(5-fluoro-2-((methoxy-d3)methyl-d2)phenyl)-4-(trifluoromethyl)pyridazin-3-yl)-2-((tetrahydro-2H-pyran-4-yl)methyl)octahydro-cyclopenta[c]pyrrol-5-amine] |  |  | 
4 | 9.5 | Cc1ccc(F)cc1-c1cc(C(F)(F)F)c(N[C@H]2C[C@@H]3CN(CC4CCCOC4)C[C@@H]3C2)nn1 (stereo partly drawn) [Example 28, (3aR,5s,6aS)-N-(6-(5-fluoro-2-methylphenyl)-4-(trifluoromethyl)pyridazin-3-yl)-2-((tetrahydro-2H-pyran-3-yl)methyl)octahydro-cyclopenta[c]pyrrol-5-amine] |  |  | 
5 | 130 | Cc1ccc(F)cc1-c1cc(C(F)(F)F)c(N[C@H]2C[C@@H]3CN(C[C@H]4CCOC4)C[C@@H]3C2)nn1 [Example 31, (3aR,5s,6aS)-N-(6-(5-fluoro-2-methylphenyl)-4-(trifluoromethyl)pyridazin-3-yl)-2-(((R)-tetrahydrofuran-3-yl)methyl)octahydro-cyclopenta[c]pyrrol-5-amine] |  |  | 

SMILES | remaining activity at 30 µM (Human M4; % ACh maximum at 30 μM) [%] | IC50 (Human M4) [nM] | reduction of catalepsy induced by haloperidol ([1]; M4KO mice) | reversal of catalepsy induced by haloperidol ([1]; WT mice) | Human M4 Emin (Human M4; % ACh maximum at 30 μM) [%]
Cc1ccc(F)cc1-c1cc(C(F)(F)F)c(O[C@H]2C[C@@H]3CN(CC4CCOCC4)C[C@@H]3C2)nn1 [Example 5, (3aR,5s,6aS)-5-((6-(5-fluoro-2-methylphenyl)-4-(trifluoromethyl)pyridazin-3-yl)oxy)-2-((tetrahydro-2H-pyran-4-yl)methyl)octahydrocyclopenta[c]pyrrole] |  | 1240 |  |  | 7

Source: patent US20230183219A1, “CONDENSED SUBSTITUTED HYDROPYRROLES AS ANTAGONISTS OF THE MUSCARINIC ACETYLCHOLINE RECEPTOR M4” (Vanderbilt University, priority 2020, published 2023)
